Experimental findings from PMC6792352, “Limited Chemical Structural Diversity Found to Modulate Thyroid Hormone Receptor in the Tox21 Chemical Library” (Environmental Health Perspectives, 2019) are described below.

The series in a line: in vitro. The following applies: rat, gh3-tre-luc cells.

Counter-ions that a name gives are not always drawn.

The molecule `C=CCN1CC[C@]23CCCC[C@H]2[C@H]1Cc1ccc(O)cc13` [Levallorphan] yielded a CC50 at 24 h (AC50 (uM) modified / 1000) of 28.6 µM.
For the setting “AC50 (uM) modified / 1000”, `CCCCP(CCCC)CCCC` [Tributylphosphine] registered a CC50 at 24 h of over 90 µM.
In turn, `Cc1ccccc1N=O` [2-Nitrosotoluene] registered a CC50 at 24 h (AC50 (uM) modified / 1000) of over 90 µM.
Take `CCCCCCCN(CC)CCCC(O)c1ccc(NS(C)(=O)=O)cc1` (centres unmarked) [Ibutilide fumarate]: under “AC50 (uM) modified / 1000”, it took 21.5 µM to reach half-maximal cytotoxicity (CC50 at 24 h).
On to `COC(=O)c1c(C)cc(O)c(C)c1O` [Methyl 2,4-dihydroxy-3,6-dimethylbenzoate], for which the CC50 at 24 h (AC50 (uM) modified / 1000) is over 90 µM.
Turning to `O=C(c1ccccc1)c1ccc(O)cc1` [4-Hydroxybenzophenone], the CC50 at 24 h (AC50 (uM) modified / 1000) was over 90 µM.
The molecule `CCCCC[C@H](O)/C=C/[C@H]1[C@H](O)CC(=O)[C@@H]1CCCCCCC(=O)O` [Alprostadil] registered a CC50 at 24 h (AC50 (uM) modified / 1000) of over 20 µM.
For the molecule `C[C@@H]1O[C@@H](O[C@@H]2[C@@H](O)[C@H](OCCc3ccc(O)c(O)c3)O[C@H](CO[C@@H]3O[C@H](CO)[C@@H](O)[C@H](O)[C@H]3O)[C@H]2OC(=O)/C=C/c2ccc(O)c(O)c2)[C@H](O)[C@H](O)[C@H]1O` [Echinacoside], for the setting “AC50 (uM) modified / 1000”, the CC50 at 24 h is over 90 µM.
The same measure, in the same setting: then `CC1(C)S[C@@H]2[C@H](NC(=O)COc3ccccc3)C(=O)N2[C@H]1C(=O)O` [Penicillin VK], with over 90 µM; and `CCCCOC(=O)c1ccccc1C(=O)OCC(CC)CCCC` (centres unmarked) [Butyl 2-ethylhexyl phthalate], with over 90 µM; and `O=C1c2c(O)ccc(Nc3ccc(CCO)cc3)c2C(=O)c2c([N+](=O)[O-])ccc(O)c21` [C.I. Disperse Blue 27], with 63.1 µM.
`SCCOCCOCCS` [2,2'-[Ethane-1,2-diylbis(oxy)]diethanethiol]: for the setting “AC50 (uM) modified / 1000”, the CC50 at 24 h was over 90 µM.
On to `N[C@@H](C(=O)N[C@@H]1C(=O)N2C(C(=O)O)=C(CSc3c[nH]nn3)CS[C@H]12)c1ccc(O)cc1` [Cefatrizine], for which the CC50 at 24 h (AC50 (uM) modified / 1000) was over 50 µM.
Consider `CC(=O)C=CC1=C(C)CCCC1(C)C` [4-(2,6,6-Trimethyl-cyclohex-1-enyl)-but-3-en-2-one], for which, for the setting “AC50 (uM) modified / 1000”, the CC50 at 24 h was over 90 µM.
Under “AC50 (uM) modified / 1000”, `CCCC(=O)O[C@]1(C(=O)CO)CC[C@H]2[C@@H]3CCC4=CC(=O)CC[C@]4(C)[C@H]3[C@@H](O)C[C@@]21C` [Hydrocortisone 17-butyrate] showed a CC50 at 24 h of over 50 µM.
Turning to `COCCO` [2-Methoxyethanol], the CC50 at 24 h (AC50 (uM) modified / 1000) is over 90 µM.
For the setting “AC50 (uM) modified / 1000”, `Nn1cnnc1` [4-Amino-1,2,4-triazole] yielded a CC50 at 24 h of over 90 µM.
With `CC(=O)c1ccc(C)cc1` [p-Methylacetophenone], the CC50 at 24 h (AC50 (uM) modified / 1000) was over 90 µM.
Take `CCC(=O)OC1(c2ccccc2)CCN(C)CC1` [1-Methyl-4-phenyl-4-propionoxypiperidine hydrochloride]: for the setting “AC50 (uM) modified / 1000, Tox21_110001=Tox21_112832, viability, 1 nM T3 present, 24 h”, the CC50 at 24 h is over 100 µM.
As to `O=[N+]([O-])c1cc(I)c(O)c(I)c1` [2,6-Diiodo-4-nitrophenol], the CC50 at 24 h (AC50 (uM) modified / 1000) stood at 24.5 µM.
For `CC(C)CNCC(C)C` [Diisobutylamine], the CC50 at 24 h (AC50 (uM) modified / 1000) is over 90 µM.
In the case of `C=CC#N` [Acrylonitrile], the CC50 at 24 h runs as follows: (AC50 (uM) modified / 1000, Tox21_110001=Tox21_202076, viability, 1 nM T3 present, 24 h) over 100 µM; (AC50 (uM) modified / 1000, Tox21_110001=Tox21_302951, viability, 1 nM T3 present, 24 h) over 90 µM.
For the setting “AC50 (uM) modified / 1000”, `CCOC(=O)[C@H](CCc1ccccc1)N[C@H]1CCc2ccccc2N(CC(=O)O)C1=O` [Benazepril hydrochloride] gave a CC50 at 24 h of 5.95 µM.
For the molecule `CC(=O)Oc1cc(C)c(OC(C)=O)c2ccccc12` [Acetomenaphthone], the CC50 at 24 h (AC50 (uM) modified / 1000) stood at 19.7 µM.
Under “AC50 (uM) modified / 1000”, `Cc1ccccc1N1CCN(CCc2nnc3n2CCCC3)CC1` [Dapiprazole hydrochloride] came in with a CC50 at 24 h of over 50 µM.
On to `Cc1ccc(S(=O)(=O)O)cc1` [4-Methylbenzenesulfonic acid], for which the CC50 at 24 h (AC50 (uM) modified / 1000) is over 90 µM.
The same measure, in the same setting: for `CCOC(=O)COc1ccc2c(=O)cc(-c3ccccc3)oc2c1` [Efloxate] the value was over 50 µM; for `CC(C)(COC(=O)c1ccccc1)COC(=O)c1ccccc1` [Neopentyl glycol dibenzoate], over 90 µM.
For `CC(C)c1ccc(NC(=O)N(C)C)cc1` [Isoproturon], under “AC50 (uM) modified / 1000”, the CC50 at 24 h is over 90 µM.
Take `CCCCCOC(=O)Nc1nc(=O)n([C@@H]2O[C@H](C)[C@@H](O)[C@H]2O)cc1F` [Capecitabine]: for the setting “AC50 (uM) modified / 1000”, the CC50 at 24 h was over 50 µM.
The molecule `OC[P+](CO)(CO)CO` [Tetrakis(hydroxymethyl)phosphonium sulfate] registered a CC50 at 24 h (AC50 (uM) modified / 1000, Tox21_110001=Tox21_200928, viability, 1 nM T3 present, 24 h) of over 90 µM.
Under “AC50 (uM) modified / 1000”, `CCCCCOC(=O)c1ccc(O)cc1` [Pentylparaben] registered a CC50 at 24 h of 67.4 µM.
On the same count and under the same terms, for `CCn1cc(C(=O)O)c(=O)c2cnc(N3CCNCC3)nc21` [Pipemidic acid] the value was over 20 µM; for `CN(C)CCC(c1ccccc1)c1ccccn1` (centres unmarked) [Pheniramine maleate], over 90 µM.
With `CCCC(=O)OCCc1ccccc1` [2-Phenylethyl butanoate], the CC50 at 24 h (AC50 (uM) modified / 1000) is over 90 µM.
The same measure, in the same setting: then `CC(=O)OC/C=C(\C)CCC=C(C)C` [Geranyl acetate], with over 90 µM; and `Clc1nnc(Cl)c2ccccc12` [1,4-Dichlorophthalazine], with over 90 µM; and `CC[C@H]1OC(=O)C[C@@H](O)[C@H](C)[C@@H](O[C@@H]2O[C@H](C)[C@@H](O[C@H]3C[C@@](C)(O)[C@@H](O)[C@H](C)O3)[C@H](N(C)C)[C@H]2O)[C@@H](CC=O)C[C@@H](C)C(=O)/C=C/C(C)=C/[C@@H]1CO[C@@H]1O[C@H](C)[C@@H](O)[C@@H](OC)[C@H]1OC` [Tylosin tartrate], with over 50 µM.
For the molecule `Clc1cc(Cl)c2c(c1)N=C1CCCCCN1C2` [1,3-dichloro-6,7,8,9,10,12-hexahydroazepino[2,1-b]quinazoline hydrochloride (1:1)], for the setting “AC50 (uM) modified / 1000”, the CC50 at 24 h is over 50 µM.
Still for that read-out and setting: for `CCC(C)CCCC(C)(C)O` (centres unmarked) [2,6-Dimethyloctan-2-ol] the value was over 90 µM.
Regarding `O=Cc1ccccc1` [Benzaldehyde], where the note is “AC50 (uM) modified / 1000”, the CC50 at 24 h was over 90 µM.
The same measure, in the same setting: then `COc1cccc2c1cc([N+](=O)[O-])c1c(C(=O)O)cc3c(c12)OCO3` [Sodium aristolochate-I], with 5.9 µM; and `COCC(C)OCC(C)O` (centres unmarked) [Dipropylene glycol monomethyl ether], with over 90 µM.
Molecule `OC[C@H]1O[C@@H](n2cnc3c2NC=NC[C@H]3O)C[C@@H]1O` [Pentostatin] had a CC50 at 24 h (AC50 (uM) modified / 1000) of over 50 µM.
In turn, `CCC(=O)C(=O)CC` [3,4-Hexanedione] gave a CC50 at 24 h (AC50 (uM) modified / 1000) of over 100 µM.
Regarding `CC(C)OB(OC(C)C)OC(C)C` [Triisopropyl orthoborate], the CC50 at 24 h (AC50 (uM) modified / 1000) is over 90 µM.
As for `CN1CCN(c2cc3c(cc2F)c(=O)c(C(=O)O)cn3-c2ccc(F)cc2)CC1` [Difloxacin hydrochloride], under “AC50 (uM) modified / 1000”, the CC50 at 24 h is over 50 µM.
With `ClC(Cl)c1ccccc1` [Benzal chloride], for the setting “AC50 (uM) modified / 1000”, the CC50 at 24 h was over 90 µM.
For the setting “AC50 (uM) modified / 1000”, `Clc1ccc(Sc2cc(Cl)c(Cl)cc2Cl)cc1` [Tetrasul] had a CC50 at 24 h of over 90 µM.
Take `COP(=S)(OC)SCN1C(=O)c2ccccc2C1=O` [Phosmet]: the CC50 at 24 h (AC50 (uM) modified / 1000, Tox21_110001=Tox21_110993, viability, 1 nM T3 present, 24 h) is over 50 µM and the CC50 at 24 h (AC50 (uM) modified / 1000, Tox21_110001=Tox21_202316, viability, 1 nM T3 present, 24 h) was over 90 µM.
For the setting “AC50 (uM) modified / 1000”, `CCCCCCCCCCCCCCCC(=O)OC(C)C` [Hexadecanoic acid, 1-methylethyl ester] registered a CC50 at 24 h of over 50 µM.
On the same count and under the same terms, for `CNC(=O)ON=CC(C)(C)[S+](C)[O-]` (centres unmarked) [Aldicarb sulfoxide] the value was over 90 µM.
The molecule `CC(=O)Oc1ccc2c3c1O[C@H]1[C@@H](OC(C)=O)C=C[C@H]4[C@@H](C2)N(C)CC[C@@]341` [(-)-Heroin hydrochloride] had a CC50 at 24 h (AC50 (uM) modified / 1000) of over 100 µM.
`CC(O)COC(C)COC(C)CO` (centres unmarked) [Tripropylene glycol] registered a CC50 at 24 h (AC50 (uM) modified / 1000) of over 90 µM.
`Cc1ccc(O)c(C)c1` [2,4-Dimethylphenol] yielded a CC50 at 24 h (AC50 (uM) modified / 1000) of over 90 µM.
Take `CC(=O)O[C@]1(C(C)=O)CC[C@H]2[C@@H]3C[C@H](C)C4=CC(=O)CC[C@]4(C)[C@H]3CC[C@@]21C` [Medroxyprogesterone acetate]: the CC50 at 24 h (AC50 (uM) modified / 1000) was over 90 µM.
The same measure, in the same setting: then `COc1c(Cl)c(Cl)c(Cl)c(Cl)c1Cl` [Pentachloroanisole], with over 90 µM.
`CCCCCCCCCCCCCCBr` [1-Bromotetradecane] came in with a CC50 at 24 h (AC50 (uM) modified / 1000) of over 100 µM.
`CCOC(=O)C(C)OC(=O)c1cc(Oc2ccc(C(F)(F)F)cc2Cl)ccc1[N+](=O)[O-]` (centres unmarked) [Lactofen] yielded a CC50 at 24 h (AC50 (uM) modified / 1000) of over 90 µM.
`c1ccc2c(c1)OCC(CN1CCCCC1)O2` (centres unmarked) [Piperoxan] had a CC50 at 24 h (AC50 (uM) modified / 1000) of over 50 µM.
As for `NC(Cc1ccc(Cl)cc1)C(=O)O` (centres unmarked) [Fenclonine], the CC50 at 24 h (AC50 (uM) modified / 1000) is over 50 µM.
The same measure, in the same setting: for `CCn1cc(C(=O)O)c(=O)c2ccc(C)nc21` [Nalidixic acid] the value was over 90 µM; for `CCN(CC)/[N+]([O-])=N/O` [1,1-Diethyl-2-hydroxy-2-nitrosohydrazine diethylamine], over 50 µM.
For the setting “AC50 (uM) modified / 1000”, `O=C1C(=O)c2ncccc2-c2cccnc21` [Phanquinone] came in with a CC50 at 24 h of 1.78 µM.
For `CCOC(=O)Nc1ccc2c(c1)N(C(=O)CCN1CCOCC1)c1ccccc1S2` [Moricizine hydrochloride], the CC50 at 24 h (AC50 (uM) modified / 1000) was over 20 µM.
For the setting “AC50 (uM) modified / 1000”, `CCC(=O)O[C@]1(C(=O)CCl)[C@@H](C)C[C@H]2[C@@H]3CCC4=CC(=O)C=C[C@]4(C)[C@@]3(F)[C@@H](O)C[C@@]21C` [Clobetasol propionate] returned a CC50 at 24 h of over 50 µM.
Take `O=C1C(Cl)=C(Cl)C(=O)C(Cl)=C1Cl` [Chloranil]: the CC50 at 24 h by setting is: (AC50 (uM) modified / 1000, Tox21_110001=Tox21_201656, viability, 1 nM T3 present, 24 h) 12.7 µM; (AC50 (uM) modified / 1000, Tox21_110001=Tox21_303021, viability, 1 nM T3 present, 24 h) 20.3 µM.
`O=C(O)CNC(=O)c1ccc(CO)o1` [5-(Hydroxymethyl-2-furoyl)glycine] showed a CC50 at 24 h (AC50 (uM) modified / 1000) of over 90 µM.
